For test [1], the target named is T1, integrin α4β1 (RAMOS human cells adhering to VCAM-1) (Homo sapiens, UniProt P05556+P13612).
T1 construct: Ramos cells, which express integrin α4β1; host or cells: RAMOS
As to the kind of experiment: Integrin α4β1-VCAM cell adhesion assay (RAMOS cells). It counts as cell-based. As to conditions: for IC50: Ramos cells adhering to VCAM, read-out: Ramos Adhesion α4β1/VCAM IC50; for Ratio Ramos/RPMI: ratio of cell adhesion IC50s, Ramos α4β1/VCAM over RPMI8866 α4β7/MAdCAM. The procedure: Integrin α4β1-VCAM Cell Adhesion Assay
The plate was incubated overnight at 4° C. and washed twice with 150 μl per well wash buffer (0.05% Tween 20 in PBS), blocked with 250 μl per well blocking buffer (1% non-fat dry milk in PBS), for 1 hour at room temperature. During blocking step, RAMOS cells were resuspended at 10 million cells/ml in PBS containing […] and incubated at 37° C. for 30 min in a 50 ml tube. […] The plate was emptied by inverting and blotting on paper towels and washed manually twice with PBS. […] To calculate the dose response, the fluorescence value of control wells not containing cells was subtracted from each test well.

In test [2] the target is T2, recombinant integrin α4β7 (Homo sapiens, UniProt P13612+P26010, DEL724-798).
T2 construct: purchased R&D Systems 5397-A3-050
T2 sequence (P13612 34-970 limits assumed): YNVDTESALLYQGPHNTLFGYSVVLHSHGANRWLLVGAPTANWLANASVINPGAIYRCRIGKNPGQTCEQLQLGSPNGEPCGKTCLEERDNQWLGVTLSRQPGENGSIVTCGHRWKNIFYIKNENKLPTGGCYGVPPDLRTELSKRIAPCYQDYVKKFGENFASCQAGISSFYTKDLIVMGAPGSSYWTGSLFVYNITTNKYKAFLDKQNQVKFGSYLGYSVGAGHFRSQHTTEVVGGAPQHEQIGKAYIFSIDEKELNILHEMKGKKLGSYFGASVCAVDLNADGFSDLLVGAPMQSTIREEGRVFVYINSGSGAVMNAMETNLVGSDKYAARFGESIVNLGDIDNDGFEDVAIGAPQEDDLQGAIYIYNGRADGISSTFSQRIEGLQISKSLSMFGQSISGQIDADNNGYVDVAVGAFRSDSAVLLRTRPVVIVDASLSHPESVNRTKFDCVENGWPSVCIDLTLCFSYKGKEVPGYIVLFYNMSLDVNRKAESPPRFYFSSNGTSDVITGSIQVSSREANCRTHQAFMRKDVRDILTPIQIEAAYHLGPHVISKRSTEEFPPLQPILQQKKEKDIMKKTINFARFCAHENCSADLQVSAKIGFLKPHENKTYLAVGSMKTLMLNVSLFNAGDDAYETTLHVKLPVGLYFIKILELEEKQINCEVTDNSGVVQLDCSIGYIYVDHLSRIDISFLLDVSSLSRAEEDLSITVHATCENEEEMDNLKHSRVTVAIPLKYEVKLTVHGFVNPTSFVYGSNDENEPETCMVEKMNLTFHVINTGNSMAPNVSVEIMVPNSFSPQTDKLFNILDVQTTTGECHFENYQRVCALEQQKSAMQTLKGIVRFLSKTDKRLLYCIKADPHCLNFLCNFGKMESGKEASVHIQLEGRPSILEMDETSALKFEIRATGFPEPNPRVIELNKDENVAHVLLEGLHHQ
T2 sequence (P26010 20-723 limits assumed): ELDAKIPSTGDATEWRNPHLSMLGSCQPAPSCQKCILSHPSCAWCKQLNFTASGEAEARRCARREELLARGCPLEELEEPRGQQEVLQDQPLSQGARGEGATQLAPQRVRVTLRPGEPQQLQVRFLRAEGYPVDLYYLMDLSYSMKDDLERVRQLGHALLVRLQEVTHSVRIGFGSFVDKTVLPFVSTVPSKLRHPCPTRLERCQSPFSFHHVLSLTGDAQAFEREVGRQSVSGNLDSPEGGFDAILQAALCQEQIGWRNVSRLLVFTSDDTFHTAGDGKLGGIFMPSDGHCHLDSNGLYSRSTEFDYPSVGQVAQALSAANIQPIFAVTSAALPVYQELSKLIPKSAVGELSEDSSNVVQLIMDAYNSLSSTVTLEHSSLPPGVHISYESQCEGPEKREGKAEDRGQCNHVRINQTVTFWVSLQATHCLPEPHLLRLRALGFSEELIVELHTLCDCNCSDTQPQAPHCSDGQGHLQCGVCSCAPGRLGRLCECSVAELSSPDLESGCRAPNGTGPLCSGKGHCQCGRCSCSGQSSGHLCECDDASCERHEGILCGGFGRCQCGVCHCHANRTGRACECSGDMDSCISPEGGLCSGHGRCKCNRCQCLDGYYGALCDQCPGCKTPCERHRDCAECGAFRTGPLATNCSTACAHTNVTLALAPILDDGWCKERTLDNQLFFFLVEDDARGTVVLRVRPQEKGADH
The test is described as follows: Integrin α4β7—MAdCAM-1 ELISA competition assay. It counts as binding. The settings on record: read-out: ELISA α4β7 Assay IC50. Background: ELISA stands for enzyme-linked immunosorbent assay.

In test [3] the target is T3, recombinant integrin α4β1 (Homo sapiens, UniProt P05556+P13612).
T3 construct: purchased R&D Systems 5397-A3-050
T3 sequence (P05556 21-728 limits assumed, one chain of several): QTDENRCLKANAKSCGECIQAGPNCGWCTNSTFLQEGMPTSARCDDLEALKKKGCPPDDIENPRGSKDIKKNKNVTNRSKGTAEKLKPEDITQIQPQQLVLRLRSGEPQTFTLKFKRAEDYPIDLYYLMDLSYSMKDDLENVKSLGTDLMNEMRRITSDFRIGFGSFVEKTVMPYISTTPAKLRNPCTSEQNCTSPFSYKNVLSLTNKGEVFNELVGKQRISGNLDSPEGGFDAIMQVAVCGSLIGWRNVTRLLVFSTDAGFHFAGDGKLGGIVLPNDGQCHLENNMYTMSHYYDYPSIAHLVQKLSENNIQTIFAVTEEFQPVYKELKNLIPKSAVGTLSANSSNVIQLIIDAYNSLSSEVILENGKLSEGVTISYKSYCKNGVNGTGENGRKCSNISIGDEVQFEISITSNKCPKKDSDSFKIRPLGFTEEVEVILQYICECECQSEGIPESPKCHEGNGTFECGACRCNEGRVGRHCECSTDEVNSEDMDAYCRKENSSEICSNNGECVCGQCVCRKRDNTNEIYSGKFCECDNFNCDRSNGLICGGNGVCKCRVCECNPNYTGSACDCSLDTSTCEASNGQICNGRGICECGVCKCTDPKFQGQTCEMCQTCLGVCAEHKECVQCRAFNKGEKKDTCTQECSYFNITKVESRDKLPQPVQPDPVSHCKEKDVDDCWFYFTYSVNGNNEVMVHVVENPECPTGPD
The test is described as follows: Integrin α4β1—VCAM-1 competition ELISA. As to conditions: for ELISA Assay Ratio β1/β7: ratio of ELISA IC50s, α4β1 over α4β7; for IC50: read-out: ELISA α4β1 Assay IC50. It counts as binding. The method in brief: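 Detection of bound ligand used HRP-conjugated anti-human IgG Fc, 1 h with agitation at room temperature. This followed a 2 h room-temperature, 300 rpm equilibration of compound in the coated wells. Washes were done in 50 mM Tris, 100 mM NaCl, 1 mM MnCl2, 0.05% Tween.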

T1 sequence (P13612 34-1032): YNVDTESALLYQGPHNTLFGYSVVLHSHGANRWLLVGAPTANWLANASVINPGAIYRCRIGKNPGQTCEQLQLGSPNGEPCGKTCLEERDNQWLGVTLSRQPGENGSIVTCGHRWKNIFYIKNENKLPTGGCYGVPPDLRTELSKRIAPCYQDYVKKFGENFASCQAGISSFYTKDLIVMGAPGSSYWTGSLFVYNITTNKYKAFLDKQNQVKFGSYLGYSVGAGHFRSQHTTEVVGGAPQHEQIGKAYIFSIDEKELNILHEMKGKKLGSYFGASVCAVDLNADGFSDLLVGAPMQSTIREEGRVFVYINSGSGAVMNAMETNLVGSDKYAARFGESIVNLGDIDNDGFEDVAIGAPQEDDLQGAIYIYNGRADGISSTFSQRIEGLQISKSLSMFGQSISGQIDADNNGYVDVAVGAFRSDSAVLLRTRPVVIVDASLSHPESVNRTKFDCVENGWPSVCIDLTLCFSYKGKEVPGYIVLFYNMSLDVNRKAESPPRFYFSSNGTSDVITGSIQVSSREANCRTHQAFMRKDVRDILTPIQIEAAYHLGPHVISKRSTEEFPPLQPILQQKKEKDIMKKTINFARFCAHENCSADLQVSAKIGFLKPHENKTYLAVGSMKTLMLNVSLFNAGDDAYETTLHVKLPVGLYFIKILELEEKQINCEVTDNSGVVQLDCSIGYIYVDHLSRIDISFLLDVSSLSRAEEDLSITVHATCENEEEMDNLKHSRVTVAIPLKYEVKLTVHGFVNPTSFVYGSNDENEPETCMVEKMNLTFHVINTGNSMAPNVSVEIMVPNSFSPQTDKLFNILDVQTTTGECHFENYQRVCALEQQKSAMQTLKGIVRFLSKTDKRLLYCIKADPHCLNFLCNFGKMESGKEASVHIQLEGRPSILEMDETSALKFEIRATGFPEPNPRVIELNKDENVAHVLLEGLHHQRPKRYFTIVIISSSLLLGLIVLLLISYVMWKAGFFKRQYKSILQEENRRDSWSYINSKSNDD
T1 sequence (P05556 21-798): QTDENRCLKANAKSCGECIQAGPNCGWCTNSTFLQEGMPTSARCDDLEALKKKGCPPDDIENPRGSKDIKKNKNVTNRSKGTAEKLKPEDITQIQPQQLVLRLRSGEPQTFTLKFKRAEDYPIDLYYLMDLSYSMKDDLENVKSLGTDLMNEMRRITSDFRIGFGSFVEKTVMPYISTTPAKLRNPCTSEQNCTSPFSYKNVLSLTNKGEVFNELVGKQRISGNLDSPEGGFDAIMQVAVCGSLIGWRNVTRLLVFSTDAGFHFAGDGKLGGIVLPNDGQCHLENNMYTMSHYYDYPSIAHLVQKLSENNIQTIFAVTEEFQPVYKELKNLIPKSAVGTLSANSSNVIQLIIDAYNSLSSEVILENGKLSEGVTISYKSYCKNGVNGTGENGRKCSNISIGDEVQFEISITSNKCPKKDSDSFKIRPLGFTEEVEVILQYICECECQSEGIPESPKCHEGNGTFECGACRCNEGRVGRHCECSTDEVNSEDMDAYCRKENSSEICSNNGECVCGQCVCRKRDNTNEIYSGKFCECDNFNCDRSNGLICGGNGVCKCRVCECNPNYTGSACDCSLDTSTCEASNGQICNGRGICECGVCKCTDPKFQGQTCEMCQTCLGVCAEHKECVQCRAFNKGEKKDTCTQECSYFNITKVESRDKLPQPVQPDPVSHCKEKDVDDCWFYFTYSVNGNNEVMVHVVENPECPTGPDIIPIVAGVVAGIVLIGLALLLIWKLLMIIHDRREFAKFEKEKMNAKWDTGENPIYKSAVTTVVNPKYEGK

As to `CC(C)C[C@@H]1NC(=O)c2ccc(-c3ccc(N4CCN(C(=O)C5(C(=O)N6CCN(c7ccc(-c8ccc9cc8CNC(=O)[C@@H]8CCCN8[C@H](C(=O)NC(C)(C)C)[C@H](C)NC(=O)[C@H]([C@@H](C)O)NC(=O)[C@H](CC(=O)O)NC(=O)[C@H](CC(C)C)NC9=O)cc7)CC6)Cc6ccccc6C5)CC4)cc3)c(c2)CNC(=O)[C@@H]2CCCN2[C@H](C(=O)NC(C)(C)C)[C@H](C)NC(=O)[C@H]([C@@H](C)O)NC(=O)[C@H](CC(=O)O)NC1=O` [Compound 461], the results for the IC50 in test [1], in test [2] and in test [3] were 1.22 µM, 0.018 µM and 0.0079 µM, respectively. Also, the “Ratio Ramos/RPMI” value in test [1] stood at 31. For the same molecule, in test [3], the “ELISA Assay Ratio β1/β7” value turned out to be 0.4.
Regarding `COc1cc(C(=O)N2CCN(c3ccc(-c4ccc5cc4CNC(=O)[C@@H]4CCCN4[C@H](C(=O)NC(C)(C)C)[C@H](C)NC(=O)[C@H]([C@@H](C)O)NC(=O)[C@H](CC(=O)O)NC(=O)[C@H](CC(C)C)NC5=O)cc3)CC2)cc(-c2ccc(C(=O)N3CCN(c4ccc(-c5ccc6cc5CNC(=O)[C@@H]5CCCN5[C@H](C(=O)NC(C)(C)C)[C@H](C)NC(=O)[C@H]([C@@H](C)O)NC(=O)[C@H](CC(=O)O)NC(=O)[C@H](CC(C)C)NC6=O)cc4)CC3)cc2F)c1` [Compound 464], the IC50 in test [1] was 1.55 µM; in test [2], 0.061 µM; in test [3], 0.022 µM.
In the case of `CC(C)C[C@@H]1NC(=O)c2ccc(-c3ccc(N4CCN(C(=O)c5ccc(-c6cccc(C(=O)N7CCN(c8ccc(-c9ccc%10cc9CNC(=O)[C@@H]9CCCN9[C@H](C(=O)NC(C)(C)C)[C@H](C)NC(=O)[C@H]([C@@H](C)O)NC(=O)[C@H](CC(=O)O)NC(=O)[C@H](CC(C)C)NC%10=O)cc8)CC7)n6)nc5)CC4)cc3)c(c2)CNC(=O)[C@@H]2CCCN2[C@H](C(=O)NC(C)(C)C)[C@H](C)NC(=O)[C@H]([C@@H](C)O)NC(=O)[C@H](CC(=O)O)NC1=O` [Compound 466], in test [1], the IC50 was 3.24 µM and the “Ratio Ramos/RPMI” value came out at 34. Further, the IC50 in test [2] turned out to be 0.014 µM. In test [3], the “ELISA Assay Ratio β1/β7” value came out at 0.3 and the IC50 is 0.0042 µM.
For `CC(C)C[C@@H]1NC(=O)c2ccc(-c3ccc(N4CCN(C(=O)c5nccnc5C(=O)N5CCN(c6ccc(-c7ccc8cc7CNC(=O)[C@@H]7CCCN7[C@H](C(=O)NC(C)(C)C)[C@H](C)NC(=O)[C@H]([C@@H](C)O)NC(=O)[C@H](CC(=O)O)NC(=O)[C@H](CC(C)C)NC8=O)cc6)CC5)CC4)cc3)c(c2)CNC(=O)[C@@H]2CCCN2[C@H](C(=O)NC(C)(C)C)[C@H](C)NC(=O)[C@H]([C@@H](C)O)NC(=O)[C@H](CC(=O)O)NC1=O` [Compound 467] the same measures were 0.876 µM, 20, 0.0086 µM, 0.1 and 0.001 µM.
With `CC(C)C[C@@H]1NC(=O)c2ccc(-c3ccc(N4CCN(c5ncc([N+](=O)[O-])c(N6CCN(c7ccc(-c8ccc9cc8CNC(=O)[C@@H]8CCCN8[C@H](C(=O)NC(C)(C)C)[C@H](C)NC(=O)[C@H]([C@@H](C)O)NC(=O)[C@H](CC(=O)O)NC(=O)[C@H](CC(C)C)NC9=O)cc7)CC6)n5)CC4)cc3)c(c2)CNC(=O)[C@@H]2CCCN2[C@H](C(=O)NC(C)(C)C)[C@H](C)NC(=O)[C@H]([C@@H](C)O)NC(=O)[C@H](CC(=O)O)NC1=O` [Compound 468], the figures for the IC50 in test [1], in test [2] and in test [3] were 0.677 µM, 0.032 µM and 0.01 µM, respectively. Further, the “Ratio Ramos/RPMI” value in test [1] was determined as 51. The “ELISA Assay Ratio β1/β7” value in test [3] turned out to be 0.3.
On to `CC(C)C[C@@H]1NC(=O)c2ccc(-c3ccc(N4CCN(C(=O)c5cc(-c6ccccc6)c(C(=O)N6CCN(c7ccc(-c8ccc9cc8CNC(=O)[C@@H]8CCCN8[C@H](C(=O)NC(C)(C)C)[C@H](C)NC(=O)[C@H]([C@@H](C)O)NC(=O)[C@H](CC(=O)O)NC(=O)[C@H](CC(C)C)NC9=O)cc7)CC6)cc5-c5ccccc5)CC4)cc3)c(c2)CNC(=O)[C@@H]2CCCN2[C@H](C(=O)NC(C)(C)C)[C@H](C)NC(=O)[C@H]([C@@H](C)O)NC(=O)[C@H](CC(=O)O)NC1=O` [Compound 469], for which the IC50 came to 0.044 µM in test [1], 0.036 µM in test [2] and 0.01 µM in test [3]. The “ELISA Assay Ratio β1/β7” value in test [3] is listed as 0.3.
In the case of `CC(C)C[C@@H]1NC(=O)c2ccc(-c3ccc(N4CCN(C(=O)c5ccc(C(=O)N6CCN(c7ccc(-c8ccc9cc8CNC(=O)[C@@H]8CCCN8[C@H](C(=O)NC(C)(C)C)[C@H](C)NC(=O)[C@H]([C@@H](C)O)NC(=O)[C@H](CC(=O)O)NC(=O)[C@H](CC(C)C)NC9=O)cc7)CC6)s5)CC4)cc3)c(c2)CNC(=O)[C@@H]2CCCN2[C@H](C(=O)NC(C)(C)C)[C@H](C)NC(=O)[C@H]([C@@H](C)O)NC(=O)[C@H](CC(=O)O)NC1=O` [Compound 470], the values for the IC50 in test [1], in test [2] and in test [3] were 1.11 µM, 0.0054 µM and 0.001 µM, respectively. For the same molecule, the “Ratio Ramos/RPMI” value in test [1] stood at 66. The “ELISA Assay Ratio β1/β7” value in test [3] is 0.2.
Taken in the same sequence, the figures for `CC(C)C[C@@H]1NC(=O)c2ccc(-c3ccc(N4CCN(C(=O)c5ccc(-c6ccc(C(=O)N7CCN(c8ccc(-c9ccc%10cc9CNC(=O)[C@@H]9CCCN9[C@H](C(=O)NC(C)(C)C)[C@H](C)NC(=O)[C@H]([C@@H](C)O)NC(=O)[C@H](CC(=O)O)NC(=O)[C@H](CC(C)C)NC%10=O)cc8)CC7)cc6)cc5)CC4)cc3)c(c2)CNC(=O)[C@@H]2CCCN2[C@H](C(=O)NC(C)(C)C)[C@H](C)NC(=O)[C@H]([C@@H](C)O)NC(=O)[C@H](CC(=O)O)NC1=O` [Compound 474] were 1.3 µM, 0.019 µM, 0.0071 µM, 95 and 0.4.
For `CC(C)C[C@@H]1NC(=O)c2ccc(-c3ccc(N4CCN(CC(=O)N5CCN(c6ccc(-c7ccc8cc7CNC(=O)[C@@H]7CCCN7[C@H](C(=O)NC(C)(C)C)[C@H](C)NC(=O)[C@H]([C@@H](C)O)NC(=O)[C@H](CC(=O)O)NC(=O)[C@H](CC(C)C)NC8=O)cc6)CC5)CC4)cc3)c(c2)CNC(=O)[C@@H]2CCCN2[C@H](C(=O)NC(C)(C)C)[C@H](C)NC(=O)[C@H]([C@@H](C)O)NC(=O)[C@H](CC(=O)O)NC1=O` [Compound 481] the same measures were 0.94 µM, 0.0071 µM, 0.0016 µM, 26 and 0.2.

For the origin of these results see US11713338B2, “Cyclic peptides multimers targeting α-4-β-7 integrin” (priority 2016, dated 2023).
